This note sets out measurements from patent US9493423B2, “Compounds capable of inhibiting voltage gated calcium ion channel, and pharmaceutical compositions comprising the same” (KOREA INSTITUTE OF SCIENCE AND TECHNOLOGY, priority 2015, dated 2016).

Assay type in all cases: cell-based
Assay [1] concerns the target T1, α1G T-type calcium ion channel (Homo sapiens, UniProt O43497).
T1 construct: host or cells: HEK293 stably expressing α1G and Kir2.1, selected with G-418
As to the kind of experiment: Antagonistic activity against T-type calcium ion channel, α1G (FDSS6000 screening / whole cell patch clamp in HEK293 cells). Particulars: HEK293 cells expressing α1G. The method, then: The novel compounds, represented by Chemical Formula 1, of the present invention were assayed for antagonistic activity against T-type calcium ion channels as follows.
After being synthesized, the compounds were primarily screened for inhibitory activity against T-type channels using a high-throughput screening device FDSS6000, and selection was made of the synthetic compounds that blocked T-type channels at an inhibitory rate of 40% or higher. In a secondary screening process, the selected compounds were examined for the effective inhibitory concentration IC50 by measuring Ca^2+ potentials in human HEK293 cells.
Using Titertek Multidrop Plate Dispenser, HEK293 cell line cells that stably expressed alG T-type calcium ion channel and Kir2.1 (α1G cell line: KCTC 10519BP, Korean Human Gene Bank of the Korea Research Institute of Bioscience and Biotechnology) were seeded at a density of 4×10^4 cells/well into 96-well plates that were treated with poly-L-lysine (0.05 mg/ml) 12˜24 hrs before activity screening. On the day of test, the cells adherent to the 96-well plates were washed three times with a HEPES buffer (150 mM NaCl, 5 mM KCl, 1 mM MgCl2, 2 mM CaCl2, 10 mM HEPES, 10 mM glucose, pH 7.4) using a 96-well plate washer (Bio Tek), and then stained with a fluorescent dye by treatment with a HEPES containing 5 μM fluo-3/AM and 0.001% Pluronic F-127 for 1 hr at room temperature. Again, the cells were washed twice with a HEPES buffer. Ten minutes before reading on FDSS6000, the cells were washed once with a HEPES buffer containing 10 mM CaCl2, and the final volume per well was adjusted to 81 μL. Separately from the 96-well plates in which cells were contained, two 96-well plates were prepared so as to contain KCl (final concentration 75 mM), which activates T-type calcium ion channels, and blocker drugs therein. Since most cell-based HTS devices, although provided with a liquid application system necessary for drug infusion, have no liquid absorption systems, blocker drugs to be searched for and KCl were individually prepared into a 5-fold higher concentration in 27 μL of 10 mM CaCl2 HEPES. The concentration was 1/5 diluted into a final volume of 135 μL in each well before measurement. For the FDSS6000 measurements, cells were pre-incubated with drugs for 75 seconds after the 20-sec baseline recordings, and a change in intracellular calcium concentration induced by KCl was measured. The percent inhibition by a test compound was calculated as integrated values of 340/380 fluorescent ratio of untreated and drug-treated cells.
For accurate calcium-imaging, the light source of 4 xenon lamps in FDSS6000 were irradiated to make the cells exposed selectively to the excitation wavelength (340 nm and 380 nm) by computer-controlled filter wheel. Data was obtained at regular intervals of each 1.23 second. The emitter fluorescence light flew in through a long-pass filter was obtained as an average 340/380 ratio value for each well in the 96-wells by using CCD camera and digital fluorescence analyzer in FDSS6000. All image data and analyses were obtained by using FDSS6000-exclusive program provide from Hamamatsu Photonics.
Dulbecco's modified Eagle's medium (DMEM) supplemented with 10% fetal bovine serum (FBS) and 1% penicillin/streptomycin (v/v) was employed. The cells were cultured at 36.5° C. in a humidified condition of 95% air/5% CO2 in an incubator. The medium was refreshed every 3 or 4 days while the cells were sub-cultured every week, with the growth of only α1G T-type calcium ion channel-expressing cells in the presence of G-418 (0.5 mg/mL). The recording to the cells used in the T-type calcium channel activity analysis was conducted 2-7 days after the cells were culturing on a cover slip coated with poly-L-lysine (0.5 mg/mL) when conducting every sub-culture. For analysis at a single cell level, the T-type calcium channel current was measured by an electrophysiological whole cell patch clamp method using EPC-9 amplifier (HEKA, German). […]
(In general: Patch clamp records ionic current or voltage across a cell membrane.)

A further assay has as its system U87-MG (Human Glioma). As to the kind of experiment: SRB (sulforhodamine B) assay of cancer cell growth, U87-MG. The settings on record: 48 hrs incubation. Also on record: dose or concentration left out as unconfirmed. The protocol: (§1) For this assay, the cells at passages were separated from the surfaces of well plates using a trypsin-EDTA solution, and seeded at a density of 5×10^3 cells/well into 96-well plates. After 24 hrs of incubation in a CO2 incubator, the medium was removed. A 4-fold dilution of each of the compounds was added in an amount of 100 μL to each well, and the cells were incubated for 48 hrs. The cells were fixed by adding 100 μL of formalin to each well, washed five times with distilled water, dried at room temperature. The cells in each well were stained with 100 μL of 0.4% SRB for 30 min. at room temperature, washed five times with 1% acetic acid, and dried at room temperature. […] The optical density was read at 540 nm.
(§2) To calculate pharmaceutical efficacy of test compounds in cancer cells, GI50 was calculated according to the following Equation 1 or 2: […]
(§3) (wherein T0 is the number of cells before the addition of a test compound, and T2 is the number of cells after 48 hrs of incubation in the presence of a test compound)
(§4) The inhibition of cancer cell growth by the test compound (% inhibition) was determined by data regression using the Lotus program from the values calculated according to Equation 1, and the IC50 value was calculated from the % inhibition.

In assay [2] the test system is LNCap (Human Prostate Carcinoma). As to the kind of experiment: SRB (sulforhodamine B) assay of cancer cell growth, LNCap. Also on record: dose or concentration left out as unconfirmed. The settings on record: 48 hrs incubation. The method, then: as §1, §2, §3, §4
The subject of assay [3] is KYSE410 (Human Esophageal Carcinoma). Nature of the assay: SRB (sulforhodamine B) assay of cancer cell growth, KYSE410. Set-up: dose or concentration left out as unconfirmed. Particulars: 48 hrs incubation. The method, then:
as §1, §2, §3, §4

The test system of assay [4] is HT-1080 (Human Fibroblastoma). As to the kind of experiment: SRB (sulforhodamine B) assay of cancer cell growth, HT-1080. Also on record: dose or concentration left out as unconfirmed. Particulars: 48 hrs incubation. The method, then:
as §1, §2, §3, §4

T1 sequence (O43497 whole entry): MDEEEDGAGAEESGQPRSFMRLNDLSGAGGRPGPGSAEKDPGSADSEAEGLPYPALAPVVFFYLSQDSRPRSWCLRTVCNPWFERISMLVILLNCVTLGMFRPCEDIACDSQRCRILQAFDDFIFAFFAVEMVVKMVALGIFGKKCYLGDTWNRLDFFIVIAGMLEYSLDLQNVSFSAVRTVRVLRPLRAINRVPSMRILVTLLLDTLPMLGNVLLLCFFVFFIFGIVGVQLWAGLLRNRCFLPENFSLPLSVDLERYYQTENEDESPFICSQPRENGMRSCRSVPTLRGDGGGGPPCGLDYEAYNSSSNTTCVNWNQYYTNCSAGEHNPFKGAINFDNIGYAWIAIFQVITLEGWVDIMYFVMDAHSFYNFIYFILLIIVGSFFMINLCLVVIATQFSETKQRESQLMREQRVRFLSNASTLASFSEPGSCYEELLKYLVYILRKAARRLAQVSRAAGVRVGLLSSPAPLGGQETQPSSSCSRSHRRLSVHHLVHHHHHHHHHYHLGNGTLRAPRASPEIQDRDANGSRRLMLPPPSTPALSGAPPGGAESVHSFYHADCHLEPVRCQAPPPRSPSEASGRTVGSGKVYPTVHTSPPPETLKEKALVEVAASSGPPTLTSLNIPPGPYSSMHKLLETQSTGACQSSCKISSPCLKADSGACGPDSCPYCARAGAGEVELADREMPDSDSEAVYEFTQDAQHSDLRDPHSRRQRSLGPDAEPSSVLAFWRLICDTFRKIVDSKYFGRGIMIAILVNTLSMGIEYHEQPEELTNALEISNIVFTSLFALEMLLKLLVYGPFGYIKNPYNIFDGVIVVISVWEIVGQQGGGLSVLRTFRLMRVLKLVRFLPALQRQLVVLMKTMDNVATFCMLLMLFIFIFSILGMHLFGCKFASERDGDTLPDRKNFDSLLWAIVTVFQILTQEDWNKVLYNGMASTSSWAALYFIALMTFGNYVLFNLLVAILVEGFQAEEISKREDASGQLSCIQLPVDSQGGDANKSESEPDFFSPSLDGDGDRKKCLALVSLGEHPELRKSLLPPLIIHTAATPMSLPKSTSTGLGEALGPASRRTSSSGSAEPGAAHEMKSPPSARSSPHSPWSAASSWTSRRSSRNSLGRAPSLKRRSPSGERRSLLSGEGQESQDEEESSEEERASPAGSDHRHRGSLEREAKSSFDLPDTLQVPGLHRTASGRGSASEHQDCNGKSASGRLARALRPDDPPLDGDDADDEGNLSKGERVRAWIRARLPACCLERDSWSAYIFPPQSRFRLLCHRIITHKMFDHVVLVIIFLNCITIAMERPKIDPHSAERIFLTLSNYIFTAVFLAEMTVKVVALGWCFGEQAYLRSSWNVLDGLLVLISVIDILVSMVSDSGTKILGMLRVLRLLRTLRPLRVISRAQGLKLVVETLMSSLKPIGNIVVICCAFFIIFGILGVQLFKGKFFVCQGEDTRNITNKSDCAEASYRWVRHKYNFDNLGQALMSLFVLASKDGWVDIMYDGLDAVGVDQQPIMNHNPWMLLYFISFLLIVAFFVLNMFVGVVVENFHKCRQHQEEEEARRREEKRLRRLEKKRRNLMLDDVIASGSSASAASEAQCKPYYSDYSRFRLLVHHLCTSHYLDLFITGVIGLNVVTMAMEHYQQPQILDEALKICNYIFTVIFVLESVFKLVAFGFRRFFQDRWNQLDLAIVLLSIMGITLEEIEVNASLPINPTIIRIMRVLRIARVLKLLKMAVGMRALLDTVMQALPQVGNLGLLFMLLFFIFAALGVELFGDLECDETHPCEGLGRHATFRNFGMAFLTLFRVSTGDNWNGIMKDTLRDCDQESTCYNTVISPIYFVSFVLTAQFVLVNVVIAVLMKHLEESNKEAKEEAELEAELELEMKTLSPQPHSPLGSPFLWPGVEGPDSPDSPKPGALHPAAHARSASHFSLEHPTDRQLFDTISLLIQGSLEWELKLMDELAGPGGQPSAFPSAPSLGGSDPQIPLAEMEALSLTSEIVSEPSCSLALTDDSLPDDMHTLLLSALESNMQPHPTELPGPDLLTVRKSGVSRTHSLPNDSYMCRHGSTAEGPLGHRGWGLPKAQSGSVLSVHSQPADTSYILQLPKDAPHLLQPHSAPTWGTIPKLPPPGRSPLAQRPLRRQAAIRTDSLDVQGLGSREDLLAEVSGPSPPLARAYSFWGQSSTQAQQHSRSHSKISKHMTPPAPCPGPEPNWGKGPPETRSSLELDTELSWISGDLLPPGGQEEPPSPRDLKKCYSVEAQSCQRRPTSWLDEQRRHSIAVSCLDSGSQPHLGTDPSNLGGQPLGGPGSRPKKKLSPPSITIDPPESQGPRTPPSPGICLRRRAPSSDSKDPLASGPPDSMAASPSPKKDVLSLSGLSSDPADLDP

Take `CC(C)Cc1cc(CN2Cc3ccccc3S2(=O)=O)nn1C(C)(C)C` [Compound 29, 2-[{1-(tert-Butyl)-5-isobutyl-1H-pyrazol-3-yl}methyl]-2,3-dihydro[d]isothiazole 1,1-dioxide]: in assay [1], the “Inhibition % α1G (10 μM)” value stood at 60.62%. In the case of `Cc1ccc(S(=O)(=O)NCc2cc(CC(C)C)n(-c3ccccc3)n2)cc1` [Compound 4, N-[(5-Isobutyl-1-phenyl-1H-pyrazol-3-yl)methyl]-4-methylbenzenesulfonamide], the inhibition at 10 µM in assay [1] is 57.3%. In the case of `CC(C)(C)n1nc(CN2Cc3ccccc3S2(=O)=O)cc1-c1ccc(C2CCCCC2)cc1` [Compound 36, 2-[{1-(tert-Butyl)-5-(4-cyclohexylphenyl)-1H-pyrazol-3-yl}methyl]-2,3-dihydro[d]isothiazole 1,1-dioxide], the “Inhibition % α1G (10 μM)” value in assay [1] turned out to be 45.62%.

Turning to `Cc1c(CNS(=O)(=O)c2ccc3ccccc3c2)nn(-c2ccccc2)c1CC(C)C` [Compound 16, N-[(5-Isobutyl-4-methyl-1-phenyl-1H-pyrazol-3-yl)methyl]naphthalene-2-sulfonamide], the inhibition at 10 µM in assay [1] came to 74.2%. In the case of `Cc1ccc(F)c(S(=O)(=O)NCc2cc(CC(C)C)n(-c3ccccc3)n2)c1` [Compound 11, N-[(5-Isobutyl-1-phenyl-1H-pyrazol-3-yl)methyl]-(2-fluoro-5-methyl)benzenesulfonamide], the “Inhibition % for Cancer Cell U87-MG” value in the assay on U87-MG (Human Glioma) was determined as 34.40%. For the same compound, the “Inhibition % α1G (10 μM)” value in assay [1] amounted to 54.86%. In assay [2], the “Inhibition % for Cancer Cell LNCap” value was found to be 71.41%. In addition, in assay [3], the “Inhibition % for Cancer Cell KYSE410” value was 47.30%. For the same compound, in assay [4], the “Inhibition % for Cancer Cell HT1080” value was determined as 57.56%. As for `CC(C)Cc1cc(CNS(=O)(=O)c2cccc(Cl)c2)nn1-c1ccccc1` [Compound 3, N-[(5-Isobutyl-1-phenyl-1H-pyrazol-3-yl)methyl]-3-chlorobenzenesulfonamide], the inhibition at 10 µM in assay [1] amounted to 57.6%. Same read-out and setting: as for `CC(C)Cc1cc(CNS(=O)(=O)c2cccc(F)c2)nn1-c1ccccc1` [Compound 2, N-[(5-Isobutyl-1-phenyl-1H-pyrazol-3-yl)methyl]-3-fluorobenzenesulfonamide], the figure is 64.1%. As to `CC(C)Cc1cc(CN2Cc3ccccc3S2(=O)=O)nn1-c1ccc(F)cc1` [Compound 30, 2-[{1-(4-Fluorophenyl)-5-isobutyl-1H-pyrazol-3-yl}methyl]-2,3-dihydro[d]isothiazole 1,1-dioxide], the “Inhibition % α1G (10 μM)” value in assay [1] is 70.81%.

For the compound `Cc1c(CNS(=O)(=O)c2ccccc2)nn(-c2ccccc2)c1CC(C)C` [Compound 15, N-[(5-Isobutyl-4-methyl-1-phenyl-1H-pyrazol-3-yl)methyl]benzenesulfonamide], the inhibition at 10 µM in assay [1] came to 70.5%.

`CC(C)Cc1cc(CNS(=O)(=O)c2cccc3cccnc23)nn1-c1ccccc1` [Compound 10, N-[(5-Isobutyl-1-phenyl-1H-pyrazol-3-yl)methyl]quinoline-8-sulfonamide]: the inhibition at 10 µM in assay [1] amounted to 29.8%. Same read-out and setting: then `CC(C)Cc1cc(CNS(=O)(=O)c2ccccc2)nn1-c1ccc(F)cc1` [Compound 20, N-[(5-Isobutyl-1-(4-fluorophenyl)-1H-pyrazol-3-yl)methyl]benzenesulfonamide], with 45.6%. Same read-out and setting: as for `CC(C)Cc1cc(CNS(=O)(=O)c2c(F)cccc2F)nn1-c1ccccc1` [Compound 13, N-[(5-Isobutyl-1-phenyl-1H-pyrazol-3-yl)methyl]-2,6-difluorobenzenesulfonamide], the figure is 45.1%; as for `CC(C)Cc1cc(CNS(=O)(=O)c2ccccc2)nn1-c1ccccc1` [Compound 1, N-[(5-Isobutyl-1-phenyl-1H-pyrazol-3-yl)methyl]benzenesulfonamide], 61.4%. Same read-out and setting: then `CC(C)Cc1cc(CNS(=O)(=O)Cc2ccccc2)nn1-c1ccccc1` [Compound 7, N-[(5-Isobutyl-1-phenyl-1H-pyrazol-3-yl)methyl]benzylsulfonamide], with 65.7%; and `CC(C)Cc1cc(CN2Cc3ccccc3S2(=O)=O)nn1-c1ccccc1` [Compound 28, 2-((5-Isobutyl-1-phenyl-1H-pyrazol-3-yl)methyl)-2,3-dihydrobenzo[d]isothiazole-1,1-dioxide], with 67.9%.

The term inhibition denotes the percentage by which the read-out fell short of the control.
